Assay results as given in patent publication US20140107344A1, “ZINC SALT OF ISOTHIAZOLONE COMPOUND, METHOD FOR REDUCING IRRITATION CAUSED BY ISOTHIAZOLONE COMPOUND, ANTIBACTERIAL AND ANTIFUNGAL METHOD USING ZINC SALT OF ISOTHIAZOLONE COMPOUND, AND ANTIBACTERIAL AND ANTIFUNGAL COMPOSITION” (Nippon Soda Co., Ltd., priority 2007, published 2014).
Values after ≈ are worked out from the molar mass of the structure shown. Values joined by “and” are separate entries in the source; they are usually repeats but may differ in a detail not shown here. Equal values may be shown once.

Columns and labels:
ear auricle of a mouse = test: Local lymph node proliferation assay using a mouse (ear auricle irritation); format: in vivo; details: for Thickness of ear auricle: 50 μL/mouse per day on both ears, once a day for 3 days, day of measurement not given; for Extent of hyperplasia: ear auricle thickness on day 3 minus day 1, 0.1 mm or greater = irritating; for General symptoms: observation during administration period
From the text: (Local Lymph Node Proliferation Assay using a Mouse)
(1) Administration Solution
(A) An administration solution A prepared by suspending the BIT/Zn salt obtained in Example 1 in a mixed solvent, which was composed of N,N-dimethylacetamide, acetone and ethanol and which contained the respective component at a ratio of 4:3:3 (volume ratio) (hereafter, frequently referred to as “DAE”), so as to achieve a 5% by weight solution.
(B) An administration solution B prepared by dissolving BIT in DAE so as to achieve a 5% by weight solution.
(2) Application of an Administration Solution
12.5 μL of the administration solutions A and B were respectively applied inside and outside the ear auricle of a mouse using a micropipette. This process was carried out for both ears, once a day, and for 3 days. The applied dose was 50 μL/mouse for one day.
(3) Measurement of Body Weight
Regarding the mouse provided for the experiment, the body weight thereof was measured just before the application on day 0 of the experiment, on day 3 of the experiment, and just before the dissection thereof (on day 6).
(4) Measurement of Ear Auricle Thickness
Regarding the mouse provided for the experiment, the ear auricle thickness thereof was measured on day 1 and on day 3 of the experiment, using a digital thickness gage manufactured by Teclock Corporation.
The extent of hyperplasia was calculated by the formula: (ear auricle thickness on day 3 of the experiment)—(ear auricle thickness on day 1 of the experiment). When the extent of hyperplasia was 0.1 mm or greater, it was evaluated as “irritating”.
(5) Observation of Symptoms
During the administration period, the observations were made once just before the administration and once 3 hours after the administration. During other periods, the observations were made once a day. The presence and absence of erythema in the ear auricle was observed just before the administrations on day 1, day 2 and on day 3 of the experiment, and the observations made were evaluated in scores as 0 to 16 grades.
Method for Evaluating Mouse Eears
Grades 0-9: Evaluated as possibly not irritating to humans.
Grades 10-15: Evaluated as possibly slightly irritating to humans.
Grades greater than grade 15: Evaluated as possibly irritating to humans.

Thermal stability test = format: physicochemical
Method: A test was carried out on the thermal stability of the BIT/Zn salt obtained in Example 1 and of BIT. As a result, BIT broke down at 300° C. or less, whereas the BIT/Zn salt remained stable even at 400° C.

[1] = test system: Aspergillus niger NBRC6342; test: Test for determining minimum concentration for inhibition of growth (agar plate dilution method), Aspergillus niger; format: cell-based; details: for MIC value (mM/L) Aspergillus niger NBRC6342: MIC on a molar basis, based on the molecular weights; for MIC value: concentration of active ingredient, potato dextrose agar, strain not given in Table 2
From the text: (§1) (Test for Determining Minimum Concentration for Inhibition of Growth)
(§2) For the test samples, 3 types of samples were used; i.e., the BIT/Zn salt obtained in Example 1 (in the form of a powder containing 79.7% of active ingredients), a BIT material/SC formulation (i.e., Bestcide-NS manufactured by Nippon Soda Co., Ltd. containing 33% of active ingredients), and ZnO (zinc oxide) of 99.0% or greater (manufactured by Wako Pure Chemical Industries, Ltd.). Evaluations were made by conducting an agar plate dilution method using a potato dextrose agar medium. Two fungal strains; i.e., Aspergillus niger NBRC6342 and Cladosporium cladosporioides NBRC6348, were used as microorganisms for the test, and the BIT/Zn salt, BIT and ZnO were used at a concentration of 50 to 1,000 mg/L. The results are shown in Table 2 and Table 3. It should be noted that in Table 3, the results on the analysis of minimum inhibitory concentration (MIC) based on the molecular weights (i.e., MIC values on a molar basis) are shown.

[2] = test system: Cladosporium cladosporioides NBRC6348; test: Test for determining minimum concentration for inhibition of growth (agar plate dilution method), Cladosporium cladosporioides; format: cell-based; details: MIC on a molar basis, based on the molecular weights
From the text: as §1, §2

[3] = test system: Escherichia coli NBRC 3972; test: Antibacterial test using a coated film (JIS Z 2801), Escherichia coli; format: cell-based
Method: (§3) Regarding the BIT/Zn salt obtained in Example 1, an antibacterial test was carried out using a coated film.
(§4) For the samples, 2 types of samples were used; i.e., A) the BIT/Zn salt (in the form of a powder containing 79.7% of active ingredients) and B) a BIT material/SC formulation (i.e., Bestcide-NS manufactured by Nippon Soda Co., Ltd. containing 15.0% of active ingredients). For the coating material, an aqueous acrylic emulsion coating material manufactured by Nippe Home Products Co., Ltd. (a preservative-free product) was used.
(§5) (1) Preparation of Test Specimen
(§6) To a blank coating material, either A) 0.019% by weight of the BIT/Zn salt or B) 0.1% by weight of the BIT technical product/SC formulation was added, and the resultant was then stirred and mixed. The coating material to which the BIT/Zn salt was added was further subjected to an ultrasonic treatment to prepare a uniform dispersion.
(§7) Subsequently, the obtained drug-added coating materials were applied onto both sides ([…] for each side) of a sterilized filter paper having a size of 50×50 mm, and the resultant was cured at room temperature for 24 hours. Test specimens where no drug was added were also prepared in the same manner.
(§8) The test was carried out in accordance with JIS Z 2801. In other words, two strains of bacteria were used for the test; i.e., Escherichia coli NBRC 3972 (Escherichia coli) and Staphylococcus aureus NBRC 12732 (Staphylococcus aureus), and their cultures preincubated in an NA medium were diluted with a 500-fold diluted NB liquid medium to prepare bacterial suspensions for inoculation. 0.4 ml of the bacterial suspension was inoculated onto each test specimen (i.e., 50×50 mm sized filter paper with a coated film thereon), and the resultant was covered with a covering film (which was already sterilized and having a size of 45×45 mm). The prepared test specimen was put in a petri dish and incubated for 24 hours in a thermo-hygrostat at a temperature of 35±1° C. and a relative humidity of 95%. Thereafter, the sample surface and the covering film were washed using 10 ml of an SCDLP medium, and the number of bacterial cells per 1 ml of the washed out liquid was calculated by counting the number of colonies using an NA medium.
A coated film obtained using a blank coating material was used as a control.
The number of bacterial cells was observed, just after the inoculation (A), and after 24 hours of incubation (B).
2) Requirements for a Valid Test
1. {(A−B)/A}×100≦90 [A: just after the inoculation, B: after 24 hours of incubation]
2. Results of the viable cell count obtained in (A) were within a range from 1.0 to 5.0×10^5 cells per petri dish.
3. Results of the viable cell count obtained in the blank (untreated) were 1.0×10^3 or more cells per petri dish. […]

[4] = test system: Staphylococcus aureus NBRC 12732; test: Antibacterial test using a coated film (JIS Z 2801), Staphylococcus aureus; format: cell-based
Method: as §3, §4, §5, §6, §7
as §8, with “The prepared test specimen was put in a petri dish and incubated for 24 hours in a thermo-hygrostat at a temperature of 35±1° C. and a relative humidity of 95%.” left out, “medium. […]” for “medium.”

[5] = coated film, 24 hours at 35±1° C., 0.019% by weight BIT/Zn salt or 0.1% by weight BIT/SC in coating material
[6] = larger values indicate stronger antibacterial activity
[7] = logarithm of viable cell count after 24 hours

Row | Compound | Thickness of ear auricle (ear auricle of a mouse; 5% by weight in DAE) [mm] | Extent of hyperplasia (ear auricle of a mouse; 5% by weight in DAE) | General symptoms (ear auricle of a mouse; 5% by weight in DAE) | Grade for erythema (ear auricle of a mouse; 5% by weight in DAE, score 0 to 16, 0-9 possibly not irritating, 10-15 slightly irritating, >15 irritating to humans) | Evaluation of irritation (ear auricle of a mouse; criterion: extent of hyperplasia 0.1 mm or greater) | Thermal stability (temperature of breakdown) (Thermal stability test) [°C] | MIC value (mM/L) Aspergillus niger NBRC6342 [1] [mM/L] | MIC value [1] | MIC value (mM/L) Cladosporium cladosporioides NBRC6348 [2] [mM/L] | Activity level ([1]; statement covers both fungal strains) | Number of viable cells, Escherichia coli [3, 5] | Antibacterial activity, Escherichia coli [3, 6] | Logarithmic value, Escherichia coli [3, 7] | Antibacterial activity compared with BIT ([3]; statement covers both bacterial strains of Table 4) | Number of viable cells, Staphylococcus aureus [4, 5] | Antibacterial activity, Staphylococcus aureus [4, 6] | Logarithmic value, Staphylococcus aureus [4, 7]
1 | O=c1[nH]sc2ccccc12 [BIT, 1,2-benzoisothiazolin-3-one] | 0.39 | 0.1 mm and 0.10 mm | no abnormality was observed | 16 | irritating | ≤ 300 | 1.3 | 200 mg/L (≈ 1320 µM) | <0.3 | – | – | – | – | – | – | – | –
2 | O=c1[n-]sc2ccccc12.O=c1[n-]sc2ccccc12.[Zn+2] [BIT/Zn salt, zinc salt of BIT] | 0.34 | 0.04 mm | attachment of white powder on the ear auricle was observed 3 hours after the administration | – | – | > 400 | 2.0 | 750 mg/L | <0.1 | satisfactory to be put into practice | <10 Number of cells per petri dish | 4.9 | 1.0 | same level of antibacterial activity as that of BIT | <10 Number of cells per petri dish | 3.6 | 1.0
3 | [O]=[Zn] [ZnO, zinc oxide] | – | – | – | – | – | – | >12.3 | >1,000 mg/L | 6.10 | – | – | – | – | – | – | – | –
